Laboratory results taken from US20250241294A1, “ITACONATE PRESERVATION SOLUTION” (University Health Network, priority 2024, published 2025).

Assays:
[1] = test system: Human BEAS-2B bronchial epithelial cells; assay: BEAS-2B cold ischemia-reperfusion injury model: confluence by Incucyte imaging; type: cell-based; conditions: for confluence, mean percent difference compared to standard LPD alone: immediately upon reperfusion
Method: (§1) Human BEAS-2B bronchial epithelial cells were cultured until subconfluence in 96-well plates with standard media (DMEM+10% FBS). […] These parameters simulated the real-life environment of standard lung preservation.
(§2) This was followed by up to 48 h of warm reperfusion at 37° C. in regular cell culture media (at 5% CO2). Regular cell media was used as negative control for the simulated cold ischemia, and regular LPD was used as positive control. Upon switching to LPD, the four different itaconate derivatives in the three different concentrations were assessed and compared to regular LPD and standard media during cold static preservation. Confluence and apoptosis measurements (based on Caspase3/7 dye) were taken by serial imaging in an Incucyte S3 Live Cell imaging device to assess the efficacy of the itaconate-containing solutions in preserving each cell culture.
(§3) Four different itaconate molecules were tested, each in three different dosages and four replicates: underivatized itaconic acid (ITA) at 5 mM, 7.5 mM, and 10 mM; pH-corrected itaconic acid (NaOH-ITA) at 5 mM, 7.5 mM, and 10 mM; dimethyl itaconate (DI) at 0.125 mM, 0.25 mM, and 0.5 mM; and 4-octyl itaconate (4OI) at 0.125 mM, 0.25 mM, and 0.5 mM. […] Upon switching to LPD, the four different itaconate molecules in the three different concentrations each were assessed and compared to regular LPD (positive control) and standard media (negative control) during cold static preservation. Four replicates for each condition were used.
FIG. 5D illustrates the cell confluence results of the in vitro phase. T=0 represents the cell confluence reached before the 18-hour period of cold ischemia described with respect to FIG. 5A. Cells were cultured until subconfluence (shown at t=4 h in FIG. 5D), followed by cold ischemia from t=4 h to t=22 h. T=22 h represents the beginning of warm reperfusion as described with respect to FIG. 5A.

[2] = test system: Human BEAS-2B bronchial epithelial cells; assay: BEAS-2B cold ischemia-reperfusion injury model: cell morphology; type: cell-based
Method: as §1, §2, §3
For example, FIG. 6B illustrates the cell morphology of cells exposed to i) LPD (positive control), ii) DMEM (negative control), iii) ITA 10 mM, iv) DI 0.25 mM, and v) 4OI 0.25 mM following cold ischemia. FIG. 6C illustrates the cell morphology of these groups at reperfusion at t=22 h. […] The cells cultured in DMEM (the negative control) died during cold ischemia and were washed away during reperfusion, as shown by a comparison of FIG. 6B to FIG. 6C.

[3] = test system: Human bronchiole epithelial cells (BEAS2B); assay: Intracellular free ferrous iron (FerroOrange) after cold storage; type: cell-based; conditions: LPD + 0.25 mM DI vs LPD alone; 24 h at 10° C.; p<0.001
Method: This example aimed to determine whether an organ preservation solution having 0.25 mM dimethyl itaconate (DI) could have anti-ferroptotic properties. Human bronchiole epithelial cells (BEAS2B) were cultured to sub-confluence in standard culture medium (DMEM+10% fetal bovine serum) at 37° C. Upon reaching sub-confluence, the culture medium was aspirated completely, and cells were washed twice with phosphate-buffered saline (PBS) before adding cooled LPD or LPD supplemented with DI at a concentration of 0.25 mM. Cells were then placed in a 10° C. refrigeration unit for 24 hours. […] To measure intracellular iron between treatment groups after storage for 24 h at 10° C., FerroOrange, a fluorescent probe for free ferrous ions (Fe2+), was used according to the manufacturer's protocol (Dojindo Molecular Laboratories, MD, USA).
A […] FerroOrange solution was prepared in serum-free DMEM. Cells were washed with serum-free DMEM three times before being exposed to FerroOrange solution. The plate was then stored at 37° C. for 30 minutes. Fluorescence was quantified with a Cytation microplate reader (BioTek, VT, USA), with the top reading mode at an excitation wavelength of 543 nm and emission wavelength of 580 nm.

pig lungs = assay: Porcine ex vivo lung perfusion (EVLP) model of lung transplantation: lung physiology; set-up: species or system Yorkshire pigs
Method: (§4) Lungs were surgically harvested from Yorkshire pigs weighing 31-38 kg. The dimethyl itaconate (DI) 0.25 mM solution was selected for testing in vivo due to positive performance in vitro. The lungs were randomized to be flushed with a flush solution of Low Potassium Dextran (LPD) in two groups, with or without 0.25 mM dimethyl itaconate (DI) (n=4 pairs of lungs per group). For flushing, 2 L of flush solution were administered antegrade, and […] was administered retrograde prior to lung static preservation. Retrograde flush solution was collected in a sterile bag and used to coat the lungs during the preservation period. When appropriate (based on assigned randomization), DI was added to all 3 L of flush solution. Surgical teams were blinded to the intervention.
(§5) Still referring to FIG. 5C, lungs were subsequently preserved at 4° C. for an extended period of 36 h, then reperfused on EVLP for 6 h. EVLP allows lungs to be ventilated, reperfused to normothermia, and evaluated in an extracorporeal platform. EVLP performance was measured because it strongly correlates with post-transplant, recipient performance. Multiple physiological parameters of lung function were measured, and perfusate and tissue biopsies were collected. The measured physiological parameters included plateau airway pressure, change in partial pressure of oxygen delta PO2 (left atrium PO2—pulmonary artery PO2), static compliance, pulmonary vascular resistance (PVR), total perfusate loss, and wet to dry (W/D) ratios.
(§6) Statistical analysis was performed with GraphPad prism 9.0 (GraphPad Software, San Diego, CA). Two-way repeated measures ANOVA with Dunn's post-test based on the distribution of data and Mann-Whitney test were used for comparison between groups, when appropriate. Values are presented as mean±SEM unless stated otherwise, and p values <0.05 are considered statistically significant.

[4] = test system: inflammatory cytokines in both tissue and perfusate; assay: Porcine EVLP model: cytokine analysis of lung tissue and perfusate; type: in vivo, Yorkshire pigs; conditions: DI 0.25 mM flush vs control
Method: as §4, §5, §6

[5] = test system: Human BEAS-2B bronchial epithelial cells; assay: BEAS-2B cold ischemia-reperfusion injury model: apoptosis (Caspase3/7 dye); type: cell-based; conditions: immediately upon reperfusion, p<0.001
Method: as §1
This was followed by up to 48 h of warm reperfusion at 37° C. in regular cell culture media (at 5% CO2). Regular cell media was used as negative control for the simulated cold ischemia, and regular LPD was used as positive control. Upon switching to LPD, the four different itaconate derivatives in the three different concentrations were assessed and compared to regular LPD and standard media during cold static preservation. […]
as §3, with “Four replicates for each condition were used.” left out

## C=C(CC(=O)OCCCCCCCC)C(=O)O [4OI, 4-octyl itaconate]
[1]; 4OI in LPD, 18 h cold ischemia, reperfusion
  cell confluence compared to standard LPD alone or DI: did not perform favorably
[2]; 0.25 mM and 0.5 mM 4OI in LPD, 18 h cold ischemia at 4° C., reperfusion
  cell morphology: morphological cell injury to a lower extent

## C=C(CC(=O)OC)C(=O)OC [DI, dimethyl itaconate]
[3]
  intracellular iron (FerroOrange fluorescence): significantly reduced amount of intracellular iron
Pig lungs; flush LPD with 0.25 mM DI vs LPD, 36 h at 4° C., after 6 h of perfusion
  areas of edema on dorsal lung surface: more pronounced in the control group when compared to the DI group
Pig lungs; flush LPD+DI 0.25 mM vs LPD, 36 h at 4° C., 6 h EVLP, p<0.0001
  plateau airway pressures: lower
Pig lungs; flush LPD+DI 0.25 mM vs LPD, 36 h at 4° C., 6 h EVLP, p<0.01
  delta PO2 (left atrium PO2—pulmonary artery PO2): higher
Pig lungs; flush LPD+DI 0.25 mM vs LPD, 36 h at 4° C., 6 h EVLP, p<0.05
  static compliances: higher
Pig lungs; flush LPD+DI 0.25 mM vs control, 6 h EVLP, not statistically significant
  total perfusate loss: trend toward reduced total perfusate loss
Pig lungs; flush LPD+DI 0.25 mM vs control, trend, not statistically significant
  wet-to-dry ratios: reduced wet-to-dry ratios
[1]; DI 0.125 mM
  confluence ranking among tested solutions: highest confluence
[1]; DI 0.125 mM, CI 2.0-13.7, p<0.01
  confluence, mean percent difference compared to standard LPD alone: 7.84%
[1]; DI 0.25 mM
  confluence ranking among tested solutions: highest confluence
[1]; DI 0.25 mM, CI 12.34-0.14, p<0.05
  confluence, mean percent difference compared to standard LPD alone: 6.24%
[1]; after 24 h of reperfusion, p<0.001
  confluence compared to positive control (LPD): differences remained favoring DI
[2]; DI in LPD, 18 h cold ischemia at 4° C., reperfusion (FIG. 6D)
  cellular morphology: did not indicate any signs of shrinkage, pyknosis, or karyorrhexis
[4]; after 6 hours, p<0.05
  IL-6 expression levels in the perfusate: significantly reduced
  IL-8 expression levels in the perfusate: reduced IL-8 expression levels
  perfusate expression of TNF-α: significantly reduced perfusate expression of TNF-α
[4]; after 6 hours, p<0.05 (FIG. 5M)
  IL-10 expression levels in the perfusate: reduced IL-10 expression levels
[4]; lung tissue, p<0.0001
  tissue IL-8 expression: reduced tissue IL-8 expression

## C=C(CC(=O)O)C(=O)O [ITA, itaconic acid]
[1]; ITA in LPD, over 48 hours of reperfusion at 37° C.
  confluence over reperfusion: stable confluence
[5]; ITA in LPD
  apoptosis counts compared to positive controls: elevated apoptosis counts
[2]; ITA in LPD (10 mM shown), 18 h cold ischemia at 4° C., 50% O2, compared to LPD
  cell morphology: cell shrinkage, nuclear pyknosis (condensation), and start of karyorrhexis (fragmentation), consistent with irreversible cell injury

## C=C(CC(=O)O)C(=O)O [NaOH-ITA, itaconic acid]
[5]; higher concentrations of NaOH-ITA
  apoptosis counts compared to positive controls: elevated apoptosis counts
[2]; higher concentrations of NaOH-ITA in LPD, after 18 h cold ischemia at 4° C.
  cell morphology: presented morphological changes
